Reference: US11767322B2 (BRISTOL-MYERS SQUIBB COMPANY, priority 2020, dated 2023)
Read-outs that look alike come from different tables or passages of the source.

Assays:
[1] = molecular target: T1, His-GST-TVMV-hRIPK1(1-324) (Homo sapiens, UniProt Q13546); assay: biochemical; assay type: binding
T1 construct: The coding region of human RIPK1(1-324) flanked by NdeI site at 5′ end; made in house; host or cells: Spodoptera frugiperda Sf9 insect cells (baculovirus, Bac-to-Bac)
T1 sequence (Q13546 1-324): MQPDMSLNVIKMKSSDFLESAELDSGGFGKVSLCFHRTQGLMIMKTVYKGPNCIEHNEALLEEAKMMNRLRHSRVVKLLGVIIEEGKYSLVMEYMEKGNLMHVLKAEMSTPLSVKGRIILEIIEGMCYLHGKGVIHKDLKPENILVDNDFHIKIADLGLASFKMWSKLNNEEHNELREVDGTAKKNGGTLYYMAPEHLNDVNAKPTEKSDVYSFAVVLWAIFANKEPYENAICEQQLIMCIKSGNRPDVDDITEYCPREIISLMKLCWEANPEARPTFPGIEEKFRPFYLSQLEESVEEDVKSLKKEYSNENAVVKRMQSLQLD

[2] = system: MLKL phosphorylation in HT29-L23 human colorectal adenocarcinoma cells; assay: MLKL phosphorylation high-content assay; assay type: cell-based
[3] = molecular target: GST-tagged PIK3Cδ in complex with PIK3R1 (Homo sapiens, UniProt O00329); assay: PI3Kδ HTRF binding assay; conditions: read-out: PIK3CD IC50
[4] = HTRF probe displacement, 1 h at rt, read-out: RIPK1 IC50
[5] = read-out: pMLKL IC50, HT29-L23 cells, necroptosis induced with TNFα, SMAC mimetic and Z-VAD, 6 h, maximal inhibition defined by Nec1s
[6] = HTRF probe displacement, 1 h at rt
[7] = Homo sapiens, 6 h, read-out: pMLKL IC50, HT29-L23 cells, necroptosis induced with TNFα, SMAC mimetic and Z-VAD, 6 h, maximal inhibition defined by Nec1s

Chain of GST-tagged PIK3Cδ in complex with PIK3R1 (O00329 whole entry): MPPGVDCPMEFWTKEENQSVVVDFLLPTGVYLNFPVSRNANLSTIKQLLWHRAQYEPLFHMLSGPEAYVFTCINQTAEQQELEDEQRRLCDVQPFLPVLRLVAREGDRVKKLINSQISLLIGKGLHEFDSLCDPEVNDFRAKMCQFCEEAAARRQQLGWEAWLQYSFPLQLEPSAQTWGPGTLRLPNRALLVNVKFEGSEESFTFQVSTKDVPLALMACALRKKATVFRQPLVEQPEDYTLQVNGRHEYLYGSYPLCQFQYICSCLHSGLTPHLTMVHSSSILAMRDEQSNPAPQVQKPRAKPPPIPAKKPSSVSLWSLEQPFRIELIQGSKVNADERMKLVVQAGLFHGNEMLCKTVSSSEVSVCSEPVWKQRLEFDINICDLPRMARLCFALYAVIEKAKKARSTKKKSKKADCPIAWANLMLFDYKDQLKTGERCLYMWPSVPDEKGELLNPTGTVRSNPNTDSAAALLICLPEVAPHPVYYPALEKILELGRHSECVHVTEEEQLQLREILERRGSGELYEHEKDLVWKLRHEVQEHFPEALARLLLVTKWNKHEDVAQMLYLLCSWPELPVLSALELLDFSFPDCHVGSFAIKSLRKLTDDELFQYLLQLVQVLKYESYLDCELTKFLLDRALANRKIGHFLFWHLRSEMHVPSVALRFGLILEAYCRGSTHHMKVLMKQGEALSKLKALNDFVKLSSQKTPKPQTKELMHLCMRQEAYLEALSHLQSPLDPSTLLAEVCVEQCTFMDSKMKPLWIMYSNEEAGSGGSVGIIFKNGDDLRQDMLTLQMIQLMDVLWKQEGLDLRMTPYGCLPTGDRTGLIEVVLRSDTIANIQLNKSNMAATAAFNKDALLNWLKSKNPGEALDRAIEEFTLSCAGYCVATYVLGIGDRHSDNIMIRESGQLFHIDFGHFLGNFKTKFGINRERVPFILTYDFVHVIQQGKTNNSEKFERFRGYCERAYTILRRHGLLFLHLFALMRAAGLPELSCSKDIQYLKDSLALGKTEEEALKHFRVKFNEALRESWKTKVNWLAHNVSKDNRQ
Chain of GST-tagged PIK3Cδ in complex with PIK3R1 (P27986 whole entry partner): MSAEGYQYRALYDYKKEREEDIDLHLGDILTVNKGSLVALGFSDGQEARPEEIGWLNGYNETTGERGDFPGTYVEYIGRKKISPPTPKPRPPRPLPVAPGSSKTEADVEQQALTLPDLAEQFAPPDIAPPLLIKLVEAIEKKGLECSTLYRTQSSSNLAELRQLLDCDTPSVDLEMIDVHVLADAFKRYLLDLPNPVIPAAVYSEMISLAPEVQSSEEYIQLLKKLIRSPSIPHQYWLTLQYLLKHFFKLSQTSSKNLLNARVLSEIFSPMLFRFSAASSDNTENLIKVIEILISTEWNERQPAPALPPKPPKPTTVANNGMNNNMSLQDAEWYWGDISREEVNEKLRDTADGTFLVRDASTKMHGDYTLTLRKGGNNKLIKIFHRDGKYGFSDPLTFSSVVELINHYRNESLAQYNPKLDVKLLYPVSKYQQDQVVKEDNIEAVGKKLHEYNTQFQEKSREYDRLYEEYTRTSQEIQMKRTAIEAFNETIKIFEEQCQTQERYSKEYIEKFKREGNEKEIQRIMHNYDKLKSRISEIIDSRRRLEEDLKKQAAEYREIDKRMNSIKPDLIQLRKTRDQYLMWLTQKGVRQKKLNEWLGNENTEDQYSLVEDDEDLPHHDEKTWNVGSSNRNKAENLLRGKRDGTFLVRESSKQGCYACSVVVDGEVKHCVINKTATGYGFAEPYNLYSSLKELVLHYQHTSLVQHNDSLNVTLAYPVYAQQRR

`Cc1c(F)cc(-c2ccn3nc(N)nc3c2)cc1C(=O)NCC(F)(F)C(O)c1ccc(F)cc1` (single isomer, unassigned) [Example 232, 5-(2-amino-[1,2,4]triazolo[1,5-a]pyridin-7-yl)-N-(2,2-difluoro-3-(4-fluorophenyl)-3-hydroxypropyl)-3-fluoro-2-methylbenzamide] showed an IC50 [1, 4] of 4.5 nM, an IC50 [2, 5] of 3 nM and an IC50 [3, 6] greater than 15000 nM.

With `Cc1ccc(-c2ccn3nc(N)nc3c2)c(F)c1C(=O)NCCC1(c2ccc(F)cc2)CC1` [Example 16, 3-(2-amino-[1,2,4]triazolo[1,5-a]pyridin-7-yl)-2-fluoro-N-(2-(1-(4-fluorophenyl)cyclopropyl)ethyl)-6-methylbenzamide] the IC50 [1, 4] was 0.7 nM, the IC50 [2, 7] was 0.4 nM and the IC50 [3, 6] was greater than 15000 nM.

For `Cc1cc(F)c(-c2ccn3nc(N)nc3c2)cc1C(=O)NCC(F)(F)C(O)c1ccc(F)cc1` (single isomer, unassigned) [Example 97, 5-(2-amino-[1,2,4]triazolo[1,5-a]pyridin-7-yl)-N-(2,2-difluoro-3-(4-fluorophenyl)-3-hydroxypropyl)-4-fluoro-2-methylbenzamide], the IC50 [1, 4] was 1.3 nM, the IC50 [2, 5] was 6.4 nM and the IC50 [3, 6] was greater than 15000 nM.

For `Nc1nc2cc(-c3ccc(Cl)c(C(=O)NCC(F)(F)C(O)c4ccc(Cl)c(Cl)c4)c3F)ccn2n1` (single isomer, unassigned) [Example 265, 3-{2-amino-[1,2,4]triazolo[1,5-a]pyridin-7-yl}-6-chloro-N-[3-(3,4-dichlorophenyl)-2,2-difluoro-3-hydroxypropyl]-2-fluorobenzamide], the IC50 [1, 4] was 4.1 nM, the IC50 [2, 5] was 3.6 nM and the IC50 [3, 6] was greater than 15000 nM.

With `Cc1ccc(-c2ccn3nc(N)nc3c2)c(F)c1C(=O)NCCC(O)c1ccc(F)cc1` (single isomer, unassigned) [Example 50, 3-(2-amino-[1,2,4]triazolo[1,5-a]pyridin-7-yl)-2-fluoro-N-(3-(4-fluorophenyl)-3-hydroxypropyl)-6-methylbenzamide] the IC50 [1, 4] was 0.3 nM, the IC50 [2, 7] was 1.9 nM and the IC50 [3, 6] was greater than 15000 nM.

`Cc1ccc(-c2ccn3nc(N)nc3c2)c(F)c1C(=O)NCCC(O)c1ccccc1F` (single isomer, unassigned) [Example 70, 3-(2-amino-[1,2,4]triazolo[1,5-a]pyridin-7-yl)-2-fluoro-N-(3-(2-fluorophenyl)-3-hydroxypropyl)-6-methylbenzamide] showed an IC50 [1, 4] of 11 nM, an IC50 [2, 5] of 8.1 nM and an IC50 [3, 6] greater than 15000 nM.

`CCc1ccc(-c2ccn3nc(N)nc3c2)c(F)c1C(=O)NCC[C@@H](O)c1ccc(Cl)cc1` [Example 156, (R)-3-(2-amino-[1,2,4]triazolo[1,5-a]pyridin-7-yl)-N-(3-(4-chlorophenyl)-3-hydroxypropyl)-6-ethyl-2-fluorobenzamide] gave an IC50 [1, 4] of 5.8 nM, an IC50 [2, 7] of 0.8 nM and an IC50 [3, 6] greater than 15000 nM.

`[2H]C([2H])(CC([2H])(O)c1ccc(Cl)cc1)NC(=O)c1c(C)ccc(-c2ccn3nc(N)nc3c2)c1F` (single isomer, unassigned) [Example 54, 3-(2-amino-[1,2,4]triazolo[1,5-a]pyridin-7-yl)-N-(3-(4-chlorophenyl)-3-hydroxypropyl-1,1,3-d3)-2-fluoro-6-methylbenzamide] was tested, and the IC50 [1, 4] was 2.7 nM, the IC50 [2, 5] was 1 nM and the IC50 [3, 6] was greater than 15000 nM.

For `Cc1ccc(-c2ccn3nc(N)nc3c2)c(F)c1C(=O)NCCC(O)c1ccc(Cl)cc1F` (single isomer, unassigned) [Example 68, 3-(2-amino-[1,2,4]triazolo[1,5-a]pyridin-7-yl)-N-(3-(4-chloro-2-fluorophenyl)-3-hydroxypropyl)-2-fluoro-6-methylbenzamide], the IC50 [1, 4] was 3.6 nM, the IC50 [2, 7] was 0.6 nM and the IC50 [3, 6] was greater than 15000 nM.

`CC(O)(c1ccc(Cl)cc1)C(F)(F)CNC(=O)c1c(Cl)ccc(-c2ccn3nc(N)nc3c2)c1F` (single isomer, unassigned) [Example 223, 3-(2-amino-[1,2,4]triazolo[1,5-a]pyridin-7-yl)-6-chloro-N-(3-(4-chlorophenyl)-2,2-difluoro-3-hydroxybutyl)-2-fluorobenzamide] was tested, and the IC50 [1, 4] was 5.8 nM, the IC50 [2, 5] was 71 nM and the IC50 [3, 6] was greater than 15000 nM.

With `Cc1ccc(-c2ccn3nc(N)nc3c2)c(F)c1C(=O)NCCC(c1ccccc1)C(F)(F)F` (racemic) [Example 11, 3-(2-amino-[1,2,4]triazolo[1,5-a]pyridin-7-yl)-2-fluoro-6-methyl-N-(4,4,4-trifluoro-3-phenylbutyl)benzamide] the IC50 [1, 4] was 1.2 nM, the IC50 [2, 7] was 5.9 nM and the IC50 [3, 6] was greater than 15000 nM.

With `[2H]C([2H])([2H])C(O)(c1ccc(F)cc1)C(F)CNC(=O)c1c(Cl)ccc(-c2ccn3nc(N)nc3c2)c1F` (single isomer, unassigned) [Example 238, 3-(2-amino-[1,2,4]triazolo[1,5-a]pyridin-7-yl)-6-chloro-2-fluoro-N-(2-fluoro-3-(4-fluorophenyl)-3-hydroxybutyl-4,4,4-d3)benzamide] the IC50 [1, 4] was 16 nM, the IC50 [2, 5] was 1.9 nM and the IC50 [3, 6] was greater than 15000 nM.

Molecule `Cc1ccc(-c2ccn3nc(N)nc3c2)c(F)c1C(=O)NCCC(O)C1CCCC1` (centres unmarked) [Example 248, 3-(2-amino-[1,2,4]triazolo[1,5-a]pyridin-7-yl)-N-(3-cyclopentyl-3-hydroxypropyl)-2-fluoro-6-methylbenzamide] has an IC50 [1, 4] of 22 nM, an IC50 [2, 5] of 20 nM and an IC50 [3, 6] greater than 15000 nM.

Work on `Cc1ccc(-c2ccn3nc(N)nc3c2)c(F)c1C(=O)NCCC(C)(O)c1ccc(Cl)cc1` (single isomer, unassigned) [Example 59, 3-(2-amino-[1,2,4]triazolo[1,5-a]pyridin-7-yl)-N-(3-(4-chlorophenyl)-3-hydroxybutyl)-2-fluoro-6-methylbenzamide] yielded an IC50 [1, 4] of 2.5 nM, an IC50 [2, 7] of 1.2 nM and an IC50 [3, 6] greater than 15000 nM.

`COc1ccc(-c2ccn3nc(N)nc3c2)c(F)c1C(=O)NCC[C@H](O)c1ccc(Cl)cc1` [Example 147, (S)-3-(2-amino-[1,2,4]triazolo[1,5-a]pyridin-7-yl)-N-(3-(4-chlorophenyl)-3-hydroxypropyl)-2-fluoro-6-methoxybenzamide] was tested, and the IC50 [1, 4] was 9.4 nM, the IC50 ([1]; Table 22, compounds of the present invention, read-out: RPIK1 IC50) was 9.4 nM and the IC50 [2, 7] was 21 nM. For the same molecule, the IC50 ([2]; Homo sapiens, read-out: pMLKL IC50, Table 22, compounds of the present invention) was 21 nM and the IC50 [3] was 13000 nM.

`Nc1nc2cc(-c3ccc(CF)c(C(=O)NCC(F)(F)[C@@H](O)c4ccc(F)cc4)c3F)ccn2n1` [Example 294, (S)-3-(2-amino-[1,2,4]triazolo[1,5-a]pyridin-7-yl)-N-(2,2-difluoro-3-(4-fluorophenyl)-3-hydroxypropyl)-2-fluoro-6-(fluoromethyl)benzamide] showed an IC50 [1, 4] of 1.9 nM, an IC50 [2, 7] of 1.9 nM and an IC50 [3, 6] greater than 15000 nM.

Molecule `Cc1ccc(-c2ccn3nc(N)nc3c2)c(F)c1C(=O)NCCC(O)C1CCCC1` (centres unmarked) [Example 247, 3-(2-amino-[1,2,4]triazolo[1,5-a]pyridin-7-yl)-N-(3-cyclopentyl-3-hydroxypropyl)-2-fluoro-6-methylbenzamide] has an IC50 [1, 4] of 13 nM, an IC50 [2, 7] of 21 nM and an IC50 [3, 6] greater than 15000 nM.

In the case of `CCc1ccc(-c2ccn3nc(N)nc3c2)c(F)c1C(=O)NCC[C@H](O)c1ccc(Cl)cc1` [Example 155, (S)-3-(2-amino-[1,2,4]triazolo[1,5-a]pyridin-7-yl)-N-(3-(4-chlorophenyl)-3-hydroxypropyl)-6-ethyl-2-fluorobenzamide], the IC50 [1, 4] is reported as 2.7 nM, the IC50 [2, 7] is reported as 0.6 nM and the IC50 [3, 6] is reported as greater than 15000 nM.

Molecule `Cc1ccc(-c2ccn3nc(N)nc3c2)c(F)c1C(=O)NCC(F)(F)C(C)(O)c1ccc(Cl)cc1` (single isomer, unassigned) [Example 221, 3-(2-amino-[1,2,4]triazolo[1,5-a]pyridin-7-yl)-N-(3-(4-chlorophenyl)-2,2-difluoro-3-hydroxybutyl)-2-fluoro-6-methylbenzamide] has an IC50 [1, 4] of 3.2 nM, an IC50 [2, 7] of 0.9 nM and an IC50 [3, 6] greater than 15000 nM.

`Cc1cc(F)c(-c2ccn3nc(N)nc3c2)c(F)c1C(=O)NCC[C@@H](O)c1ccc(Cl)cc1` [Example 278, (R)-3-(2-amino-[1,2,4]triazolo[1,5-a]pyridin-7-yl)-N-(3-(4-chlorophenyl)-3-hydroxypropyl)-2,4-difluoro-6-methylbenzamide] showed an IC50 [1, 4] of 13 nM, an IC50 [2, 7] of 38 nM and an IC50 [3, 6] greater than 15000 nM.

In the case of `Nc1nc2cc(-c3ccc(Cl)c(C(=O)NCCC(O)c4ccc(Cl)cn4)c3F)ccn2n1` (single isomer, unassigned) [Example 83, 3-(2-amino-[1,2,4]triazolo[1,5-a]pyridin-7-yl)-6-chloro-N-(3-(5-chloropyridin-2-yl)-3-hydroxypropyl)-2-fluorobenzamide], the IC50 [1, 4] is reported as 29 nM, the IC50 [2, 5] is reported as 17 nM and the IC50 [3, 6] is reported as 11000 nM.

With `Nc1nc2cc(-c3ccc(Cl)c(C(=O)NC[C@H](F)[C@@H](O)c4ccc(F)cc4)c3F)ccn2n1` (single isomer, unassigned) [Example 296] the IC50 [1, 4] was 15 nM, the IC50 [2, 7] was 22 nM and the IC50 [3, 6] was 10000 nM.

Molecule `Cc1ccc(-c2ccn3nc(N)nc3c2)c(F)c1C(=O)NC(CF)CC(O)c1ccc(F)cc1` (single isomer, unassigned) [Example 25, 3-(2-amino-[1,2,4]triazolo[1,5-a]pyridin-7-yl)-2-fluoro-N-(1-fluoro-4-(4-fluorophenyl)-4-hydroxybutan-2-yl)-6-methylbenzamide] has an IC50 [1, 4] of 3.6 nM, an IC50 [2, 5] of 4.1 nM and an IC50 [3, 6] greater than 15000 nM.
